Active and inactive are the calls of the source.
Key:
Assay type in all cases: functional
[1] = intracellular Trypanosoma cruzi inhibitors in host cells – cell-based, plate reader, cherry-pick samples, set 3, dose response (AID 651818);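 also: compounds incubated with infected cells for about four days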
[2] = target: T1, Sentrin-specific protease 7 (Homo sapiens, UniProt Q9BQF6);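 also: Luminescence-based dose-response confirmation of ultra-high-throughput screening hits, measuring inhibition of SENP7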
T1 sequence (Q9BQF6 whole entry): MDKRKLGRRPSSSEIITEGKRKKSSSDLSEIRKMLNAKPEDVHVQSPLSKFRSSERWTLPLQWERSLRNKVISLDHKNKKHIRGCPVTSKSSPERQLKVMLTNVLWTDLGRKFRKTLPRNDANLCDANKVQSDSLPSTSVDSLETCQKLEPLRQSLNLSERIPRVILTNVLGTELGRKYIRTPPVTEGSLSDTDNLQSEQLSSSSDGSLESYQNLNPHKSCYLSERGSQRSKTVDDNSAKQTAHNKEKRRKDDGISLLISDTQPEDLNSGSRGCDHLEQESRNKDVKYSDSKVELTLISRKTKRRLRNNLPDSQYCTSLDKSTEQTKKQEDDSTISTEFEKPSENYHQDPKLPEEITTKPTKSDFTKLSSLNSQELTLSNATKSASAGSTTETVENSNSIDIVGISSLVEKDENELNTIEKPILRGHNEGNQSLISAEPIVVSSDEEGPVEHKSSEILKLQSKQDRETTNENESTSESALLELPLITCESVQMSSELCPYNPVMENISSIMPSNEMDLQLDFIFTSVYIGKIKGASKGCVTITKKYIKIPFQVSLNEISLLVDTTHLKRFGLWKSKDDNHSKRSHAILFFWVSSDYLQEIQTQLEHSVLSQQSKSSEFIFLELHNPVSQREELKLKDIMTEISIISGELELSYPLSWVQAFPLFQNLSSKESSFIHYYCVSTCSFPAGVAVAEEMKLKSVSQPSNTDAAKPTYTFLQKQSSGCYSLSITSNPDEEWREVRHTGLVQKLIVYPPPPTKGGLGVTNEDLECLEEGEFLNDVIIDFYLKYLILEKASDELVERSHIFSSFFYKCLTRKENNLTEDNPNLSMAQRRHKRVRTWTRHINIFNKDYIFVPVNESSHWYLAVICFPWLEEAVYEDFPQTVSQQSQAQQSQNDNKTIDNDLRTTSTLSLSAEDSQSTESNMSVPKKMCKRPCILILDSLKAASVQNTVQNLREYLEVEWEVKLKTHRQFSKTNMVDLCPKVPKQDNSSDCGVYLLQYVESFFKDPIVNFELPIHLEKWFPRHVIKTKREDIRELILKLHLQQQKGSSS

[3] = target: T2, Caspase-3 (Homo sapiens, UniProt P42574);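 also: Dose-response selectivity test against caspase-3 for candidate inhibitors of sentrin-specific proteases (SENPs)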
T2 sequence (P42574 whole entry): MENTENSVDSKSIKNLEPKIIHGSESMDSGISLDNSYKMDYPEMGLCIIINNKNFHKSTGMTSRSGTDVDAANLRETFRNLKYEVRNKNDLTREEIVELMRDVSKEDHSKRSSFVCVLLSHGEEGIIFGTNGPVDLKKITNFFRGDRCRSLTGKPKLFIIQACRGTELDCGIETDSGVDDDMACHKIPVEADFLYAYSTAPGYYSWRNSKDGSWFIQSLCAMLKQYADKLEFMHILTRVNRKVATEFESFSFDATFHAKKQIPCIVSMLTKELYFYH

[4] = target: T3, Sentrin-specific protease 8 (Homo sapiens, UniProt Q96LD8);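 also: luminescence read-out of SENP8 inhibition, dose-response confirmation following an ultra-high-throughput screen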
T3 sequence (Q96LD8 whole entry): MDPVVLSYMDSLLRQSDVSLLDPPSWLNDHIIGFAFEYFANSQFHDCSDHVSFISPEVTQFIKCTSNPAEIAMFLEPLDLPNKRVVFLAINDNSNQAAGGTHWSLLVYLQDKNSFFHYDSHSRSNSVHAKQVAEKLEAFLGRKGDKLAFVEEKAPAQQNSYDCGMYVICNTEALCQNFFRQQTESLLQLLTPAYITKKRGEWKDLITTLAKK

[5] = target: T4, Sentrin-specific protease 6 (Homo sapiens, UniProt Q9GZR1);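 also: Luminescence-based dose-response confirmatory assay of SENP6 inhibition, following up an ultra-high-throughput screen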
T4 sequence (Q9GZR1 whole entry): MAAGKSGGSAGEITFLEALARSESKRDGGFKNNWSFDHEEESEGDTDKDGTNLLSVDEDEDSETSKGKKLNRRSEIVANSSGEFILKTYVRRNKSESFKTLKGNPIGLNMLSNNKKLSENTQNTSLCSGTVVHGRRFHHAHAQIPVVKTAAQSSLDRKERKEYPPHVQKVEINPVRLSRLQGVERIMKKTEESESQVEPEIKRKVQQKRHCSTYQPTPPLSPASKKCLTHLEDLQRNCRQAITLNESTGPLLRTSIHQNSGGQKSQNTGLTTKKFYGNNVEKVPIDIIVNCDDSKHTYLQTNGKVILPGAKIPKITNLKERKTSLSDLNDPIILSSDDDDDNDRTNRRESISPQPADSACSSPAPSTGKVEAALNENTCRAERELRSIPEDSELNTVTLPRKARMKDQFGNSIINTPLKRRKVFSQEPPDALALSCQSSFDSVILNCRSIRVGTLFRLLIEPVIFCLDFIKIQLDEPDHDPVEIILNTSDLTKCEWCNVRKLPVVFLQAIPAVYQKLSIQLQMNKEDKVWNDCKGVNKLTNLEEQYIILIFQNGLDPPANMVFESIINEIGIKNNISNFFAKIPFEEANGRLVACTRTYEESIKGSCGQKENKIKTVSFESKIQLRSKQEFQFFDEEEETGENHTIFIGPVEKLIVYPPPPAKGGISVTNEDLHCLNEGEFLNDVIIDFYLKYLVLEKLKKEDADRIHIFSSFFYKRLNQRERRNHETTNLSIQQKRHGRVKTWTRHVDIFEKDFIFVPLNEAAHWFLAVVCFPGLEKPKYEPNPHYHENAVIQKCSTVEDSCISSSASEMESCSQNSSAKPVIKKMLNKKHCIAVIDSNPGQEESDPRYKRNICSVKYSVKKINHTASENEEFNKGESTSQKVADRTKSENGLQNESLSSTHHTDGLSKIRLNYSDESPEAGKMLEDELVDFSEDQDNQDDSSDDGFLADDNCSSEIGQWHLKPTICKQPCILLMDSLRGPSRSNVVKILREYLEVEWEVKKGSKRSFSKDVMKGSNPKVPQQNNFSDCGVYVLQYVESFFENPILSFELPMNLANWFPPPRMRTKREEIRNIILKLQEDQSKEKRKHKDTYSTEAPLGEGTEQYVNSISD

[6] = target: T5, Protein skinhead-1 (Caenorhabditis elegans, UniProt P34707)
T5 sequence (P34707 whole entry): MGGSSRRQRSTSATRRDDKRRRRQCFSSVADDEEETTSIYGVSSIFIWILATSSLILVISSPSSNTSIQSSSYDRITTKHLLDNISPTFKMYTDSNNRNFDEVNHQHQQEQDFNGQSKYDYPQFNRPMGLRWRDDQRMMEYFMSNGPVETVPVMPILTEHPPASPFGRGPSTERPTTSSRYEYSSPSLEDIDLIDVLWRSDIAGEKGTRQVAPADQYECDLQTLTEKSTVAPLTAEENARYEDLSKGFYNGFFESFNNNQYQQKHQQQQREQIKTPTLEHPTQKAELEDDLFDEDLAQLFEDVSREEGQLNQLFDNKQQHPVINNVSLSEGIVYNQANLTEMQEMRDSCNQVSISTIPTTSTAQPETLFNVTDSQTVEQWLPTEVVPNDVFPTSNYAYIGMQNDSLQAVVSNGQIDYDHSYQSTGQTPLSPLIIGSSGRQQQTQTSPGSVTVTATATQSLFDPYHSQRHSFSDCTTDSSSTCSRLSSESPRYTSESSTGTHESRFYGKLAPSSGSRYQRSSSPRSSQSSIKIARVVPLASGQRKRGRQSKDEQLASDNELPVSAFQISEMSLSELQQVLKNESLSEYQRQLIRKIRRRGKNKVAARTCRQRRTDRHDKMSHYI

[7] = target: T6, Corticotropin-releasing factor receptor 2/Corticotropin-releasing factor-binding protein (Homo sapiens, UniProt P24387+Q13324); test: activators of CRF receptor 2 with binding protein – uHTS hits, confirmation (AID 602473); details: read-out: EC50_Mean
T6 sequence (Q13324 whole entry): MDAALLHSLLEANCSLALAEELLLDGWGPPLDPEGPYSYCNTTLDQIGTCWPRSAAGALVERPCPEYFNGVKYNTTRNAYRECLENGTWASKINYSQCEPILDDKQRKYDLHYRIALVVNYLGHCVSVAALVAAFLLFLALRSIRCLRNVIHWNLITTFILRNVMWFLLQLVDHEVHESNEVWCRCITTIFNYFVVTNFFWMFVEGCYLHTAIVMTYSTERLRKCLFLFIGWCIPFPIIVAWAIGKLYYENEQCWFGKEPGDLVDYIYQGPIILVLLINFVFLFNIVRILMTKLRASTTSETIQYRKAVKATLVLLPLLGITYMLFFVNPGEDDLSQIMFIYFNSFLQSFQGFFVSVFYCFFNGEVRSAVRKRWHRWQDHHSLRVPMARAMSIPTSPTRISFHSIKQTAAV
T6 sequence (P24387 whole entry): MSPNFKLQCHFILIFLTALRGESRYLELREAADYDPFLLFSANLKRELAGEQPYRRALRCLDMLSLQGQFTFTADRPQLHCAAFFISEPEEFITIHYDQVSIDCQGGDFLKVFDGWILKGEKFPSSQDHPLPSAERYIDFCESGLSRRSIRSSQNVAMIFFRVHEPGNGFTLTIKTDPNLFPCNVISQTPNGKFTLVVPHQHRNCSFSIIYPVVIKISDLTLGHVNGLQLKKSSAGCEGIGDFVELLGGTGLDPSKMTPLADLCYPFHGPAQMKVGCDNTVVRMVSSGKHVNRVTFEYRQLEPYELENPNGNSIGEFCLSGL

[8] = target: T6, Corticotropin-releasing factor receptor 2/Corticotropin-releasing factor-binding protein; test: Dose Response confirmation of uHTS hits for small molecule antagonists of the CRF-binding protein and CRF-R2 receptor complex.; details: read-out: IC50_Mean
[9] = system: H4; test: Luminescence Cell-Based Dose Response HTS to Identify Activators of 5'UTR Stem-Loop Driven Prion Protein mRNA Translation in H4 Neuroglioblastoma Cells. [Related pubchem assays: 1829 (Project Summary), 1814 (Primary HTS)]; details: Homo sapiens
[10] = target: T7, Heat shock factor protein 1 (Mus musculus, UniProt P38532); test: decrease of HSF1-responsive luciferase luminescence – cell-based, NIH3T3, dose retest, confirmation (AID 2382);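 also: NIH3T3 fibroblasts with HSF1-driven luciferase reporter stressed by proteasome inhibitor MG132; luminescence from HSF1-driven luciferase expression after 8 hours of MG132 stress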
T7 sequence (P38532 whole entry): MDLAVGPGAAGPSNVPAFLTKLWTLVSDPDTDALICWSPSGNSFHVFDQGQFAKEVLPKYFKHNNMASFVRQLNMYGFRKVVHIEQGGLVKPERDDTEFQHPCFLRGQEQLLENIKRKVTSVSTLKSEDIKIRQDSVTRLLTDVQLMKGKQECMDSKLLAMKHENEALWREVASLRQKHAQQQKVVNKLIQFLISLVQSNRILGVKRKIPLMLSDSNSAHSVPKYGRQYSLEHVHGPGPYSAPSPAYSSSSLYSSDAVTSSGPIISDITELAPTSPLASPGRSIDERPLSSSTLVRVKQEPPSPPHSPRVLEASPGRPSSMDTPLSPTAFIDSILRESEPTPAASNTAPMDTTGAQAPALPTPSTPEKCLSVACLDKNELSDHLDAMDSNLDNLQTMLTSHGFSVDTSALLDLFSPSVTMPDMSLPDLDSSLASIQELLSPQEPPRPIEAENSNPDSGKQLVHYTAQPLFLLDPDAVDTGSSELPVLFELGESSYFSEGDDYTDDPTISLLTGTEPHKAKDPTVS

[11] = Luminescence Cell-Based Dose Response HTS to Identify Activators of Luciferase Translation or Activity in H4 […] Cells. [Related pubchem assays: 1829 (Project Summary), 1814 (Primary HTS)]
[12] = system: Vero; test: viability of Vero cells under compound – cytotoxicity control for flavivirus capping enzyme inhibitors (AID 588742); details: Chlorocebus sabaeus
[13] = target: Genome polyprotein (dengue virus type 2, UniProt P29990); test: flavivirus cap methylation enzyme inhibition – biochemical, confirmation dose response, primary screen (AID 588689)
Sequence of Genome polyprotein (P29990 2492-3391 limits assumed): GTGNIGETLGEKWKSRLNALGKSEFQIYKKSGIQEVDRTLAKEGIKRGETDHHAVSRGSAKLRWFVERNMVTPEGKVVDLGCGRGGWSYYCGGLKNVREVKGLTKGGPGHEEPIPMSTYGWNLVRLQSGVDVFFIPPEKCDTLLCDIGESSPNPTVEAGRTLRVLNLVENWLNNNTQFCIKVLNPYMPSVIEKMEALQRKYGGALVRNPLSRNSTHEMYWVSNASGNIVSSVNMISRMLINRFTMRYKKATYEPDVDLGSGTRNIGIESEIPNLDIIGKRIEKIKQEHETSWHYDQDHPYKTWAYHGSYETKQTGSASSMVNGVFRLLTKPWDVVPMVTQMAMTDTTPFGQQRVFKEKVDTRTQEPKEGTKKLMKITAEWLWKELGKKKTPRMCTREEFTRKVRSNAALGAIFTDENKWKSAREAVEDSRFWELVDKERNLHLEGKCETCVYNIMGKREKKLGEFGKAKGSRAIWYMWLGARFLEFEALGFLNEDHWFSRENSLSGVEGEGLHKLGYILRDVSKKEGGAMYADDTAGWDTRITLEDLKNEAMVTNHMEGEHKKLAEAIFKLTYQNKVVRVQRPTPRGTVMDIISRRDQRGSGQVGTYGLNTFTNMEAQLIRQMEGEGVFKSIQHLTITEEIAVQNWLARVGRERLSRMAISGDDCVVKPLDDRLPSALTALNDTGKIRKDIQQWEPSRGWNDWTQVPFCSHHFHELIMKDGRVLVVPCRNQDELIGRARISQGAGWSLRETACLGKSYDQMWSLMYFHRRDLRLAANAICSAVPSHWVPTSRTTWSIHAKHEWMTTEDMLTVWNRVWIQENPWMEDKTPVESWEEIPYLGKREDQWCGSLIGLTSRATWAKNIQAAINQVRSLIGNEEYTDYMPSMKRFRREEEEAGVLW

C[C@H](CO)N1C[C@H](C)[C@H](CN(C)Cc2ccc(C(=O)Nc3ccccc3N)cc2)Oc2ccc(NC(=O)Nc3ccc4c(c3)OCO4)cc2C1=O
AC50 [1]: 3.55 µM (active)

C[C@@H]1CN([C@H](C)CO)C(=O)c2cccc(NC(=O)Nc3ccc(C(F)(F)F)cc3)c2O[C@H]1CN(C)Cc1ccc2c(c1)OCO2
AC50 [1]: 1.82 µM (active)

Cc1ccc(C(=O)Nc2cccc3cccnc23)cc1C
IC50 [2]: 3.98 µM (active)
IC50 [3]: 15.6 µM (active)
IC50 [4]: 18.8 µM (active)
IC50 [5]: 14.5 µM (active)

O=[N+]([O-])c1ccc(CSc2nc3ccccc3o2)cc1
IC50 [2]: 7.69 µM (active)
IC50 [3]: 25.6 µM (active)
IC50 [4]: 16.2 µM (active)
IC50 [5]: 23.3 µM (active)
IC50 [6]: > 100 µM (inactive)

COC(=O)C1=C(C)N=C(C)/C(=C(/O)OC)C1/C=C/c1ccccc1 (stereo not given)
EC50 [7]: > 53 µM (inactive)
IC50 [8]: > 47.1 µM (inactive)

COc1ccc(C(=O)Nc2cccc(C(=O)O)c2)cc1S(=O)(=O)N1CCCC1
IC50 [2]: 6.06 µM (active)
IC50 [3]: 46.9 µM (active)
IC50 [4]: 26.6 µM (active)
IC50 [5]: 22.1 µM (active)

C[C@@H]1CN([C@H](C)CO)C(=O)c2cccc(NC(=O)c3nc4ccccc4s3)c2O[C@@H]1CN(C)Cc1ccc(C(F)(F)F)cc1
AC50 [1]: 5.42 µM (active)

C[C@@H]1CN([C@H](C)CO)C(=O)Cc2cc(NC(=O)Nc3ccc(C(F)(F)F)cc3)ccc2O[C@@H]1CN(C)Cc1ccc(Cl)c(Cl)c1
AC50 [1]: 6.82 µM (active)

Cc1ccc(C(=O)Nc2ccccc2C(=O)NC2CCCCC2)cc1S(=O)(=O)N1CCOCC1
EC50 [7]: > 53 µM (inactive)
IC50 [8]: > 47.1 µM (inactive)

Cc1cc(O)c(C2=Nc3ccccc3SC(c3ccc(Cl)cc3)C2)c(=O)o1 (stereo not given)
EC50 [9]: 107 µM (inconclusive)
EC50 [7]: > 53 µM (inactive)
IC50 [8]: > 47.1 µM (inactive)
EC50 [10]: 21 µM (active)
EC50 [11]: 38.4 µM (active)

Cc1cccc(C(=O)N2c3ccccc3C(=O)OC2c2ccc3c(c2)OCO3)c1 (stereo not given)
EC50 [7]: > 53 µM (inactive)
IC50 [8]: < 0.368 µM (active)

N#CC(=C1C=C(Br)C(=NO)C=C1Cl)c1ccc(Cl)cc1
CC50 [12]: > 40 µM (active)
IC50 [13]: 62.4 µM (active)
